Measured values as given in patent publication US20130217892A1, “Use Of N-Substituted 2-Pyrrolidone-4-Carboxylic Acid Esters And Solvents” (CLARIANT FINANCE (BVI) LIMITED, priority 2010, published 2013).

Assay: Solubilities of pesticides in compounds of the formula (1)
Type: physicochemical
Experimental: The solubilities of various pesticides were determined in various compounds of the formula (1) at 25° C. All data are in % by weight (Table 1).

Compound: CCCCOC(=O)C1CC(=O)N(C)C1 (centres unmarked) [example 3, N-Butyl N-Methyl-2-Pyrrolidone-4-Carboxylate]
- Solubility of Pendimethalin in the compound of the formula (1): 38.9 % by weight
- Solubility of Tebuconazole in the compound of the formula (1): 37.0 % by weight
- Solubility of Triadimefon in the compound of the formula (1): 43.0 % by weight
- Solubility of Trifloxystrobin in the compound of the formula (1): 30.1 % by weight
- Solubility of Trifluralin in the compound of the formula (1): 57.4 % by weight
